SMILES | melting point [°C]
CNC(=O)C1(CCCCCCCCCCCCC2(C(=O)NS(C)(=O)=O)CC2)CC1 | 111 to 112
Cc1ccc(C(=O)Nc2ccc(-n3ccnc3)c(C(F)(F)F)c2)cc1Nc1nccc(-c2cccnc2)n1 | 226 to 229
Nc1c([N+](=O)[O-])cnn1-c1c(Cl)cc(C(F)(F)F)c(F)c1Cl | 156
CC1(C)Oc2ccc(C(F)(F)F)cc2C(n2ccccc2=O)=C1CN(O)C(=O)C(F)(F)F | 208
N#CC=Cc1ccc(N)cc1 | 109 to 110
CC1(C)CCSc2cccc(CO)c21 | 53
COC(=O)CN1CCC[C@H](OCc2cc(C(F)(F)F)cc(C(F)(F)F)c2)[C@@H]1c1ccccc1 (relative stereo) | 60 to 70
CC1(C)c2cc(OS(C)(=O)=O)ccc2OC1O (stereo not given) | 69 to 72
C[C@H](NC(=O)OC(C)(C)C)C(=O)OCC(C)(C)Nc1cccc2c1C(=O)c1ccccc1C2=O | 120
CC(C)(C)OC(=O)CC(=O)c1ccc(C#N)s1 | 78
COc1cccc2c1C(=O)c1c(OC)cc(C(=O)N(C)O)cc1C2=O | 182
CCCCc1csc2ccc([N+](=O)[O-])cc12 | 82 to 83
CCCc1nc(Nc2ccc(F)c(Cl)c2)nc(NC2CCN(S(C)(=O)=O)CC2)n1 | 86 to 87
COC1=C(OC)C(=O)C(CCCCCCCCCC(=O)N[C@H](CCC(=O)O)C(N)=O)=C(C)C1=O | 136 to 137
COC(=O)c1ccc(C=C(Br)Br)c(N)c1 | 97 to 99
COC1(C)CN(c2ccc(N3C[C@H](CNC(C)=O)OC3=O)cc2F)C1 | 113 to 114
Fc1ccc(CN2CCc3cc(OC[C@H]4CO[C@](Cn5ccnc5)(c5ccc(Cl)cc5Cl)O4)ccc3C2)cc1 (racemic) | 119 to 120
CC(C)Cc1ccc(CCCN(C)[C@H]2CC[C@H](c3ccc4[nH]c(=O)oc4c3)CC2)cc1 | 162 to 165
N#Cc1c(N2CCC[C@@H]2CO)[nH]c2cccnc12 | 207 to 209
O=[N+]([O-])c1cccc(C#Cc2c(F)c(F)nc(F)c2F)c1 | 130 to 131
Oc1cc2ccccn2n1 | 127 to 128
OCCCN1CCN(C(c2ccccc2)c2ccccc2)CC1 | 126 to 128
C=CC[C@](N)(Cc1ccccc1)C(=O)O | 158 to 159

SMILES | melting point [°C]
CCCCCCc1csc2c(CCCCCC)csc12 | 57.5 to 59.1
CC(CN1CC(=O)N(CN2CCN(C)CC2)C(=O)C1)N1CC(=O)N(CN2CCN(C)CC2)C(=O)C1 (stereo not given) | 93 to 96
CCNc1nc(NCc2ccco2)nc(Nc2ccc3nc(C)sc3c2)n1 | 97 to 99
COc1cc(N)c(Cl)cc1-c1nn(C2CC3CCC(C2)N3C)c(=O)o1 (stereo not given) | 208
CCc1nn2c(-c3ccc(OC)cc3OC)cccc2c1N(CC)CCF | 51.2 to 53.6
CSc1ncc(CCN2CCC(C3(c4ccc(F)cc4)OCCO3)CC2)c(O)n1 | 206
COC(=O)c1cc2c(c(OC)c1Br)OCO2 | 85.5 to 86
COc1ccc(C(O)(C(F)(F)F)C(F)(F)F)cc1C=O | 160 to 161
CN1C(C)(C)CC(CO)CC1(C)C | 84 to 85
O=NCNC1=Nc2ccc(Cl)cc2C(c2ccccc2F)=NC1 | 170 to 172
CCS(=O)c1nsc(NC(=O)NC)c1C(N)=O (stereo not given) | 245
N#Cc1cnn2c(C(F)(F)F)cc(-c3cccc(F)c3)nc12 | 199
CCCCCCCCCOC1C(O)C(CO)OC1n1cnc2c(N)ncnc21 (stereo not given) | 143 to 144
CN(CC[C@H]1CC[C@H](C(=O)O)CC1)c1nccc(C(F)(F)F)n1 | 110 to 112
O=C1CCC(N2C(=O)c3cccc(NC(=O)COc4ccccc4)c3C2=O)C(=O)N1 (stereo not given) | 236 to 238
CCCNc1nc(OC)ccc1[N+](=O)[O-] | 69 to 70
Cc1ccc(C(=O)NN2CCOCC2)c(Nc2ccc3cn[nH]c3c2)n1 | 265 to 268
Cc1ccc(S(=O)(=O)N2CCN(Cc3ccccc3)CCN(S(=O)(=O)c3ccc(C)cc3)CCN(S(=O)(=O)c3ccc(C)cc3)CC2)cc1 | 208 to 210
CCc1cc(-c2ccncc2)cc(CC)c1C(C(N)=O)C(N)=O | 184 to 186
CN1C(=O)N(Cc2cc(C(F)(F)F)cc(C(F)(F)F)c2)C(=O)C1=Cc1c[nH]c2ccccc12 | 145 to 147
CCOc1ccc2c(c1)n(C1CCCCC1)c(=O)n2S(=O)(=O)c1ccc(C(=O)NC(C)(C)CC)cc1OC | 219
COC(c1ccc(Cl)c2nc3n(c12)CCCN3c1ccc(Cl)cc1C(F)(F)F)C1CC1 (stereo not given) | 208 to 209
CCC1(COc2ccc(C=CC(=O)O)cc2)COC1 | 128

SMILES | melting point [°C]
COc1cccc(CC(=O)O)c1OCCCc1cn(-c2ncc(C#N)cn2)nc1C(C)C | 167 to 168
Cc1cc(C(=O)CCc2cc(-c3ccc(C(F)(F)F)cc3)nn2CC2CC2)ccc1OCC(=O)O | 168 to 175
O=C(O)COc1cccc2c1CCC(CNC(=O)OC(c1ccccc1)c1ccccc1)C2 (stereo not given) | 160 to 161
Cc1nn(C)cc1C(=O)Nc1cc(Oc2ccc3nc(NC(=O)C4CC4)cn3n2)ccc1F | 205
O=Cc1cc2cccc3ccc4cccc1c4c32 | 172 to 174
CNC(=O)CC1CSc2c(C(=O)OC(C)C)ccn21 (stereo not given) | 117 to 119
CCCC1CCC(O)(c2ccc(CCCCc3ccc(C4(O)CCC(CCC)CC4)cc3)cc2)CC1 (stereo not given) | 136
Cc1ccccc1-c1ccc(C(=O)N2Cc3ccc(C(=O)NCc4ccc5c(c4)OCO5)n3Cc3ccccc32)cc1C | 149 to 151
CSc1nc(C)c(Cc2cccnc2)c(=O)[nH]1 | 208 to 211
CC1Nc2cc(F)ccc2-n2cccc21 (stereo not given) | 76 to 78
O=C1C[C@H](C(=O)Nc2ccc(N3CCOCC3=O)cc2)N(C(=O)Nc2ccc(Cl)cc2)C1 | 154
COc1ccc(-c2cc3cc(F)c(F)cc3[nH]2)cc1NCc1ccc([N+](=O)[O-])cc1 | 181 to 182
COc1cc(C)c(C(=O)c2c(C)cccc2O)c(OC)c1OC | 82 to 84
O=C(NCCOc1ccc(CC(Oc2cc(F)c(F)c(F)c2)C(=O)O)cc1)c1ccc(-c2ccccn2)cc1 (stereo not given) | 144 to 146
Cc1c2cnccc2c(C)c2c1c1cc(O)ccc1n2C | 337 to 338
CN(C)c1ccc(-c2cn[nH]c2N)cc1 | 173 to 176
CCOC(=O)C1=CC2(CCC1S(=O)(=O)Nn1cccc1)OCCO2 (stereo not given) | 115 to 117
Cc1oc2ccc(S(=O)(=O)C[N+](=O)[O-])cc2c(=O)c1C | 206 to 209
C=CCc1cn2c(=O)c(C(=O)O)cnc2c2cc(OC)ccc12 | 207 to 210
Cc1ccc2c3c(ccc2n1)OCC(CNCC1CCc2[nH]c4cc(Cl)c(F)cc4c2C1)O3 (stereo not given) | 243 to 244
CC(C)(C)Nc1c(NCc2ccccc2C(F)(F)F)c(=O)c1=O | 237 to 239
O=C(O)COc1ccc(CCc2ccc(N3CCNCC3)cc2)cc1 | > 250
COC(=O)CC/C(C)=C/Cc1c(C#N)c2c(c(C)c1OC)COC2=O | 87 to 88

The remaining lines, values ahead:

melting point [°C] | SMILES
126 to 128 | CC(=O)Nc1nc2c(s1)CCN(C(=O)OCc1ccccc1)CC2
162 to 163 | Oc1ccc(C2=NCCO2)cc1
212 to 213 | Brc1cnc2c(c1)ncn2-c1cccc(-c2cccnc2)c1
155 to 157 | Nc1c(-c2ccccc2)nn2ccccc12
84 to 86 | CCOCc1cc2ccccc2oc1=Nc1ccc(F)cc1
132 to 134 | CC(=O)ON=C(c1ccc(OC(C)=O)cc1O)c1ccccc1F
94 | COc1ccccc1C(=O)c1cccc([N+](=O)[O-])c1
210 to 212 | Nc1ccc(C(=O)N2Cc3cccn3Cc3ccccc32)c(Cl)c1
135 to 138 | C[C@H](Nc1ncnc2[nH]cnc12)c1oc2ccccc2c(=O)c1-c1ccccc1
104 to 105 | OCc1ccc(N(c2ccccc2)c2ccccc2)cc1
164 to 165 | C=C(C)Cc1cc(C(=O)O)ccc1OCc1ccc(F)cc1
118 to 120 | COC(=O)C(=O)c1ccc(OCCOc2ccc3ccccc3c2)cc1C
127 to 129 | Cc1c(O)ccc2cc(Br)ccc12
82 | Oc1ccc(Oc2ccc(Cl)cc2Cl)cc1
95.1 to 97.4 | COc1ccc(Cc2nc3c(N)nc4ccccc4c3n2CCCCNC(=O)c2ccc3ccccc3n2)cc1
246 to 248 | Cc1c(Br)cccc1NS(=O)(=O)c1cc(S(=O)(=O)Nc2cccc(Br)c2C)c2ccccc2c1O

melting point [°C] | SMILES
115 to 118 | O=C1c2ccc(Sc3ccc(Cl)cc3)cc2C(=O)N1Cc1cccnc1
150 to 157 | O=C(c1ccc(-c2ccn(C(=O)c3ccc(F)cc3Cl)n2)cc1)N1Cc2cccn2Cc2ccccc21
135 to 140 | O=C(O)Cc1ccc(Sc2ccc(Cl)cc2)cc1
216 to 218 | CCOc1ccc(C(=O)N2CCc3cc(S(=O)(=O)N4CC(c5ccccc5)NC4=O)ccc32)cc1 (stereo not given)
98 to 103 | COC(=O)C=C(C)c1ccc(CC(C)(C)NCC(O)c2ccccc2)cc1 (stereo not given)
110 to 111 | Cc1ccc(C(=O)NCCCSc2ccncc2)cc1
53 to 68 | CCCSC1=Nc2cc(C(=O)O)ccc2SN1Cc1ccc(-c2ccccc2C#N)cc1
96 to 100 | c1ccc(C(N=C2CCCC2)c2ccccc2)cc1
252 to 255 | Cc1ccc(-c2nc(O)c(-c3ccccc3)s2)cc1
214 to 217 | Cc1c(-c2ccc(O)cc2)n(Cc2ccc(OCCN3CCCCC3)cc2)c2ccc(O)cc12
107 to 108 | CCCCS(=O)(=O)Nc1cccc(Oc2cccc3cccnc23)c1
120 to 122 | O=C(O)CCCCCCc1cn(-c2cccnc2)c2ccccc12
345 to 349 | O=c1[nH][nH]c(=O)c2nc3ccccc3cc12
249 to 250 | O=C(O)c1cc(N2C(=O)C(c3ccccc3)=C(c3ccccc3)C2=O)ccc1O
155 to 156 | Cc1oc(-c2ccccc2)nc1COc1ccc([N+](=O)[O-])cc1F
